Measurements taken from ChEMBL document CHEMBL1139796, “Novel anti-tuberculosis agents from MCR libraries” (Bioorg Med Chem Lett, 2007).

Test system: Mycobacterium tuberculosis
Experiment: Antimycobacterial activity against Mycobacterium tuberculosis at 12.5 ug/ml
Format: functional
Settings: read-out: GI

Row | Compound | inhibition of growth at 12.5 µg/mL
1 | C=CCNC(=O)C(C)(C(C)C)N(C(=O)c1cccnc1)C1CC1 (stereo unspecified) | 67%
2 | C=CCNC(=O)C(C)(c1ccccc1)N(CC(C)(C)C)C(=O)c1cccnc1 (stereo unspecified) | 67%
3 | C=CCNC(=O)C(C=C)(CC)N(C(=O)c1cccnc1)C1CCCCC1 (stereo unspecified) | 84%
4 | C=CCNC(=O)C1(N(CCCN2CCOCC2)C(=O)c2cccnc2)CCN(Cc2ccccc2)CC1 | 33%
5 | C=CCNC(=O)C(CCCC)N(CC=C)C(=O)c1cccnc1 (stereo unspecified) | 100%
6 | C=CCNC(=O)C1(N(CCCN2CCOCC2)C(=O)c2cccnc2)CCCc2cc(OC)ccc21 (stereo unspecified) | 64%
7 | C=CCNC(=O)C(CCCCC)N(C(=O)c1cccnc1)C1CC1 (stereo unspecified) | 90%
8 | C=CCNC(=O)C(C=C)(CC)N(C(=O)c1cccnc1)C(C)c1ccccc1 (stereo unspecified) | 73%
9 | C=CCNC(=O)C1(N(CC(C)(C)C)C(=O)c2cccnc2)CCN(Cc2ccccc2)CC1 | 28%
10 | C=CCNC(=O)C(N(CCCn1ccnc1)C(=O)c1cccnc1)C(Cl)(Cl)Cl (stereo unspecified) | 61%
11 | C=CCNC(=O)C(C)(c1ccccc1)N(C(=O)c1cccnc1)C1CCCCC1 (stereo unspecified) | 57%
12 | C=CCNC(=O)C1(N(CC=C)C(=O)c2cccnc2)CCCc2cc(OC)ccc21 (stereo unspecified) | 80%
13 | C=CCNC(=O)C(CCCC)N(CC(C)(C)C)C(=O)c1cccnc1 (stereo unspecified) | 102%
14 | C=CCNC(=O)C(C(C)C)N(CCCn1ccnc1)C(=O)c1cccnc1 (stereo unspecified) | 43%
15 | C=CCNC(=O)C(C(C)C)N(CC=C)C(=O)c1cccnc1 (stereo unspecified) | 6%
16 | C=CCNC(=O)C(N(CC=C)C(=O)c1cccnc1)C(Cl)(Cl)Cl (stereo unspecified) | 6%
17 | C=CCNC(=O)C(CCCC)N(CCCn1ccnc1)C(=O)c1cccnc1 (stereo unspecified) | 89%
18 | C=CCNC(=O)C(CCCCC)N(C(=O)c1cccnc1)C1CCCCC1 (stereo unspecified) | 100%
19 | C=CCNC(=O)C(C)(c1ccccc1)N(C(=O)c1cccnc1)C(C)c1ccccc1 (stereo unspecified) | 83%
20 | C=CCNC(=O)C(N(C(=O)c1cccnc1)C1CCCCC1)C(F)(F)F (stereo unspecified) | 60%
21 | C=CCNC(=O)C1(N(CCCn2ccnc2)C(=O)c2cccnc2)CCCc2cc(OC)ccc21 (stereo unspecified) | 69%
22 | C=CCNC(=O)C(C=C)(CC)N(CCCn1ccnc1)C(=O)c1cccnc1 (stereo unspecified) | 23%
23 | C=CCNC(=O)C(C=C)(CC)N(C(=O)c1cccnc1)C1CC1 (stereo unspecified) | 50%
24 | C=CCNC(=O)C(C)(C)N(C(=O)c1cccnc1)C(C)c1ccccc1 (stereo unspecified) | 83%

Row | Compound | inhibition of growth at 12.5 µg/mL
25 | C=CCNC(=O)C1(N(C(=O)c2cccnc2)C2CC2)CCCc2cc(OC)ccc21 (stereo unspecified) | 69%
26 | C=CCNC(=O)C(N(CCCN1CCOCC1)C(=O)c1cccnc1)C(F)(F)F (stereo unspecified) | 72%
27 | C=CCNC(=O)C(C)(C(C)C)N(C(=O)c1cccnc1)C1CCCCC1 (stereo unspecified) | 95%
28 | C=CCNC(=O)C1(N(CC=C)C(=O)c2cccnc2)CCCCC1 | 80%
29 | C=CCNC(=O)C1(N(C(=O)c2cccnc2)C(C)c2ccccc2)CCN(Cc2ccccc2)CC1 (stereo unspecified) | 54%
30 | C=CCNC(=O)C(CCCC)N(Cc1ccncc1)C(=O)c1cccnc1 (stereo unspecified) | 96%
31 | C=CCNC(=O)C(CCCC)N(C(=O)c1cccnc1)C1CCCCC1 (stereo unspecified) | 100%
32 | C=CCNC(=O)C(CCCCC)N(CC(C)(C)C)C(=O)c1cccnc1 (stereo unspecified) | 73%
33 | C=CCNC(=O)C(C)(c1ccccc1)N(CCCn1ccnc1)C(=O)c1cccnc1 (stereo unspecified) | 71%
34 | C=CCNC(=O)C(CCCCC)N(CCCn1ccnc1)C(=O)c1cccnc1 (stereo unspecified) | 82%
35 | C=CCNC(=O)C(C)(C(C)C)N(C(=O)c1cccnc1)C(C)c1ccccc1 (stereo unspecified) | 83%
36 | C=CCNC(=O)C1(N(C(=O)c2cccnc2)C2CCCCC2)CCCCC1 | 76%
37 | C=CCNC(=O)C(C=C)(CC)N(CC=C)C(=O)c1cccnc1 (stereo unspecified) | 39%
38 | C=CCNC(=O)C(C)(c1ccccc1)N(C(=O)c1cccnc1)C1CC1 (stereo unspecified) | 72%
39 | C=CCNC(=O)C1(N(CC=C)C(=O)c2cccnc2)CCN(Cc2ccccc2)CC1 | 94%
40 | C=CCNC(=O)C(N(CC(C)(C)C)C(=O)c1cccnc1)C(F)(F)F (stereo unspecified) | 77%
41 | C=CCNC(=O)C1(N(C(=O)c2cccnc2)C(C)c2ccccc2)CCCc2cc(OC)ccc21 (stereo unspecified) | 82%
42 | C=CCNC(=O)C(CCCC)N(C(=O)c1cccnc1)C1CC1 (stereo unspecified) | 96%
43 | C=CCNC(=O)C(N(Cc1ccncc1)C(=O)c1cccnc1)C(Cl)(Cl)Cl (stereo unspecified) | 49%
44 | C=CCNC(=O)C(N(C(=O)c1cccnc1)C(C)c1ccccc1)C(F)(F)F (stereo unspecified) | 90%
45 | C=CCNC(=O)C(C)(C(C)C)N(CC=C)C(=O)c1cccnc1 (stereo unspecified) | 69%
46 | C=CCNC(=O)C(CCCCC)N(Cc1ccncc1)C(=O)c1cccnc1 (stereo unspecified) | 89%
47 | C=CCNC(=O)C(C(C)C)N(C(=O)c1cccnc1)C1CCCCC1 (stereo unspecified) | 62%
48 | C=CCNC(=O)C1(N(C(=O)c2cccnc2)C2CCCCC2)CCN(Cc2ccccc2)CC1 | 101%

Row | Compound | inhibition of growth at 12.5 µg/mL
49 | C=CCNC(=O)C(C)(C)N(C(=O)c1cccnc1)C1CC1 | 64%
50 | C=CCNC(=O)C1(N(CCCn2ccnc2)C(=O)c2cccnc2)CCN(Cc2ccccc2)CC1 | 46%
51 | C=CCNC(=O)C(C)(c1ccccc1)N(CC=C)C(=O)c1cccnc1 (stereo unspecified) | 69%
52 | C=CCNC(=O)C(C)(C)N(CCCn1ccnc1)C(=O)c1cccnc1 | 57%
53 | C=CCNC(=O)C(N(C(=O)c1cccnc1)C(C)c1ccccc1)C(Cl)(Cl)Cl (stereo unspecified) | 82%
54 | C=CCNC(=O)C(C(C)C)N(Cc1ccncc1)C(=O)c1cccnc1 (stereo unspecified) | 50%
55 | C=CCNC(=O)C(N(C(=O)c1cccnc1)C1CC1)C(F)(F)F (stereo unspecified) | 74%
56 | C=CCNC(=O)C1(N(Cc2ccncc2)C(=O)c2cccnc2)CCN(Cc2ccccc2)CC1 | 64%
57 | C=CCNC(=O)C(C)(C)N(Cc1ccncc1)C(=O)c1cccnc1 | 51%
58 | C=CCNC(=O)C1(N(CC(C)(C)C)C(=O)c2cccnc2)CCCc2cc(OC)ccc21 (stereo unspecified) | 72%
59 | C=CCNC(=O)C(C)(c1ccccc1)N(Cc1ccncc1)C(=O)c1cccnc1 (stereo unspecified) | 68%
60 | C=CCNC(=O)C(C=C)(CC)N(Cc1ccncc1)C(=O)c1cccnc1 (stereo unspecified) | 23%
61 | C=CCNC(=O)C(C(C)C)N(CCCN1CCOCC1)C(=O)c1cccnc1 (stereo unspecified) | 33%
62 | C=CCNC(=O)C(C=C)(CC)N(CCCN1CCOCC1)C(=O)c1cccnc1 (stereo unspecified) | 31%
63 | C=CCNC(=O)C(C)(C)N(CC(C)(C)C)C(=O)c1cccnc1 | 71%
64 | C=CCNC(=O)C(N(C(=O)c1cccnc1)C1CC1)C(Cl)(Cl)Cl (stereo unspecified) | 9%
65 | C=CCNC(=O)C(CCCCC)N(CCCN1CCOCC1)C(=O)c1cccnc1 (stereo unspecified) | 74%
66 | C=CCNC(=O)C(N(CC=C)C(=O)c1cccnc1)C(F)(F)F (stereo unspecified) | 6%
67 | C=CCNC(=O)C(CCCCC)N(CC=C)C(=O)c1cccnc1 (stereo unspecified) | 11%
68 | C=CCNC(=O)C(C)(c1ccccc1)N(CCCN1CCOCC1)C(=O)c1cccnc1 (stereo unspecified) | 72%
69 | C=CCNC(=O)C(CCCC)N(CCCN1CCOCC1)C(=O)c1cccnc1 (stereo unspecified) | 69%
70 | C=CCNC(=O)C(C=C)(CC)N(CC(C)(C)C)C(=O)c1cccnc1 (stereo unspecified) | 60%
71 | C=CCNC(=O)C(N(CCCN1CCOCC1)C(=O)c1cccnc1)C(Cl)(Cl)Cl (stereo unspecified) | 78%
72 | C=CCNC(=O)C1(N(Cc2ccncc2)C(=O)c2cccnc2)CCCc2cc(OC)ccc21 (stereo unspecified) | 63%

Row | Compound | inhibition of growth at 12.5 µg/mL
73 | C=CCNC(=O)C1(N(C(=O)c2cccnc2)C(C)c2ccccc2)CCCCC1 (stereo unspecified) | 74%
74 | C=CCNC(=O)C(C)(C)N(CCCN1CCOCC1)C(=O)c1cccnc1 | 70%
75 | C=CCNC(=O)C(C(C)C)N(C(=O)c1cccnc1)C(C)c1ccccc1 (stereo unspecified) | 77%
76 | C=CCNC(=O)C(C)(C(C)C)N(CCCN1CCOCC1)C(=O)c1cccnc1 (stereo unspecified) | 64%
77 | C=CCNC(=O)C(C)(C(C)C)N(CC(C)(C)C)C(=O)c1cccnc1 (stereo unspecified) | 62%
78 | C=CCNC(=O)C1(N(CCCn2ccnc2)C(=O)c2cccnc2)CCCCC1 | 43%
79 | C=CCNC(=O)C(CCCCC)N(C(=O)c1cccnc1)C(C)c1ccccc1 (stereo unspecified) | 95%
80 | C=CCNC(=O)C(C)(C(C)C)N(Cc1ccncc1)C(=O)c1cccnc1 (stereo unspecified) | 52%
81 | C=CCNC(=O)C(C)(C)N(C(=O)c1cccnc1)C1CCCCC1 | 92%
82 | C=CCNC(=O)C1(N(Cc2ccncc2)C(=O)c2cccnc2)CCCCC1 | 87%
83 | C=CCNC(=O)C(N(CC(C)(C)C)C(=O)c1cccnc1)C(Cl)(Cl)Cl (stereo unspecified) | 74%
84 | C=CCNC(=O)C(CCCC)N(C(=O)c1cccnc1)C(C)c1ccccc1 (stereo unspecified) | 100%
85 | C=CCNC(=O)C1(N(CCCN2CCOCC2)C(=O)c2cccnc2)CCCCC1 | 49%
86 | C=CCNC(=O)C(N(Cc1ccncc1)C(=O)c1cccnc1)C(F)(F)F (stereo unspecified) | 58%
87 | C=CCNC(=O)C1(N(C(=O)c2cccnc2)C2CC2)CCN(Cc2ccccc2)CC1 | 43%
88 | C=CCNC(=O)C1(N(C(=O)c2cccnc2)C2CC2)CCCCC1 | 71%
89 | C=CCNC(=O)C(C(C)C)N(C(=O)c1cccnc1)C1CC1 (stereo unspecified) | 57%
90 | C=CCNC(=O)C1(N(C(=O)c2cccnc2)C2CCCCC2)CCCc2cc(OC)ccc21 (stereo unspecified) | 72%
91 | C=CCNC(=O)C1(N(CC(C)(C)C)C(=O)c2cccnc2)CCCCC1 | 99%
92 | C=CCNC(=O)C(N(C(=O)c1cccnc1)C1CCCCC1)C(Cl)(Cl)Cl (stereo unspecified) | 74%
93 | C=CCNC(=O)C(C)(C)N(CC=C)C(=O)c1cccnc1 | 76%
94 | C=CCNC(=O)C(N(CCCn1ccnc1)C(=O)c1cccnc1)C(F)(F)F (stereo unspecified) | 71%
95 | C=CCNC(=O)C(C)(C(C)C)N(CCCn1ccnc1)C(=O)c1cccnc1 (stereo unspecified) | 54%
96 | C=CCNC(=O)C(C(C)C)N(CC(C)(C)C)C(=O)c1cccnc1 (stereo unspecified) | 76%
